# Reference: US6418341B1, “Needle electrode assembly for electroporation mediated delivery of genes and drugs” (Genetronics, Inc., priority 1993, dated 2002)
# Entries after “also recorded” stand apart in the source; their conditions may differ. Marks after values point to notes of the source that are not given here.
# What was measured:
# [1] = tested on: non-small cell lung cancer cell line (NSCLC), 177; test: Electrochemotherapy (ECT) of non-small cell lung cancer xenografts in nude mice; type: in vivo; details: for Overall outcome of the electrochemotherapy protocol: needle array electrodes
# Experimental: (§1) The mice were monitored every day for mortality and any signs of a diseased state were noted. The tumor dimensions were measured at regular intervals and tumor growth regression/progression monitored. Another set of nude mice with xenografts of non-small cell lung cancer line was also treated by the same procedure as for the Panc-3 tumors.
# (§2) The Panc-3 and NSCLC models were utilized with the drug neocarcinostatin (NCS) following the same procedures as outlined above. […] It was believed that due to the low isoelectric point of NCS, electrostatic interaction prevented the drug from entering the tumor cell. Therefore, the experiment was repeated by pulsing first and injecting NCS post-pulse.
# [2] = P = partition coefficient between octanol and water; cited from earlier work
# [3] = tested on: poorly differentiated human pancreatic tumor (Panc-3); test: Electrochemotherapy (ECT) of Panc-3 tumors xenografted subcutaneously in nude mice; type: in vivo; details: for Overall outcome of the electrochemotherapy protocol: needle array electrodes
# Experimental: The following examples illustrate the use of electrochemotherapy (ECT) of a poorly differentiated human pancreatic tumor (Panc-3) xenografted subcutaneously on the left flank of nude mice. The single treatment procedure involved injection of bleomycin (0.5 units in 0.15 ml saline) intratumorally, using fanning, as described herein followed by application of six square wave electrical pulses, ten minutes later, using proprietary needle array electrodes arranged along the circumference of a circle 1 cm in diameter. Needle array of variable diameters (e.g., 0.5 cm, 0.75 cm and 1.5 cm can also be used to accommodate tumors of various sizes. Stoppers of various heights can be inserted at the center of the array to make the penetration depth of the needles into the tumor variable. A built-in mechanism allowed switching of electrodes for maximum coverage of the tumor by the pulsed field. The electrical parameters were: 1300 V/cm and 6×99 μs pulses spaced at 1 sec interval.
# The tumor cell line Panc-3, a poorly differentiated adenocarcinoma cell line of the pancreas, was supplied by AntiCancer, Inc., San Diego. For ECT experiments, tissue taken from the stock mice, where the tumor fine was maintained, was thawed and cut into very small pieces about 1 mm each, and 8-10 pieces were surgically xenografted in a subcutaneous sac made in left flank of nude mice, and then closed with 6.0 surgical suture. After the average tumor size reached about 5 mm, mice with palpable tumors were divided randomly, 10 mice for control group (D+E−; D=Drug, E=Electric field) and 10 mice for ECT treatment namely bleomycin injection followed by pulsing (D+E+) from a BTX Square Wave T820 Generator. The tumor dimensions were measured and the tumor volume calculated using the formula: […]
# where a, b, and c are, respectively, the length, width and thickness of the tumor. 0.5 units Bleomycin (Sigma Chemicals) was dissolved in 0.15 ml of 0.9% NaCl and was injected in each mice intratumorally by fanning for both the control (D+E−) and the treated (D+E+) groups. Ten minutes after the injection, each mouse in the D+E+ group was pulsed from a BTX T820 square wave electroporator with a set of needle array electrodes as described in the present invention. Electrical parameters used were as follows: field strength 1300 V/cm, 6 pulses of 99 μs each, at 1 sec interval.
# as §1, §2
# [4] = tested on: cancerous tumors; details: low dose injected, tumors then electroporated with square wave pulses; cited from earlier work
# [5] = ECT, 10 mice treated, 28 days after treatment
# [6] = ECT, 10 mice treated, 35 days after treatment
# [7] = ECT, 10 mice treated, 57 days after treatment
# [8] = ECT, 10 mice treated, 77 days after treatment
substance,measurement,setting,value
bleomycin,Result of ECT treatment on tumor volume,"[1]; ECT as for Panc-3, FIGS. 12a, 12b",very encouraging results
same,Overall outcome of the electrochemotherapy protocol,[1],effectively treated
same,Tumor after retreatment of a recurred tumor,"[1]; one mouse retreated at day 27, 7 days after retreatment (FIG. 13)",no evidence of tumor
same,log P,[2],very negative
same,Histological analysis of tumor samples,[3]; D+E+ group (ECT),severe necrosis of the tumor region; also recorded: necrotic tumor cell ghosts
same,Cases with partial regression (80% reduction in tumor volume),[3]; ECT (D+E+),30%
same,Necrosis and edema at the treatment site,[3]; ECT (D+E+),severe necrosis and edema in nearly all the mice
same,Mice with tumor regrowth,"[3]; ECT (D+E+), 35 days after treatment, much slower growth rate than control",20%
same,Cases with complete regression with no palpable tumor,"[3]; ECT (D+E+), 77 days after the single treatment",60%
same,Time after which essentially no detectable tumor,"[3]; ECT (D+E+), FIG. 10",approximately 24 days
same,"CR (100%), Complete Regression, number of mice",[3]; [5],6
same,"NR (%), No Response, number of mice",[3]; [5],1
same,"PR (80%), Partial Regression, number of mice",[3]; [5],3
same,"CR (100%), Complete Regression, number of mice",[3]; [6],6
same,"NR (%), No Response, number of mice",[3]; [6],1
same,"Tumor regrowth, number of mice",[3]; [6],2
same,"CR (100%), Complete Regression, number of mice",[3]; [7],6
same,"NR (%), No Response, number of mice",[3]; [7],1
same,"CR (100%), Complete Regression, number of mice",[3]; [8],6
same,"NR (%), No Response, number of mice",[3]; [8],1
same,"Death, number of mice","[3]; ECT, 10 mice treated, 77 days after treatment, 1 died after retreatment, 1 after 64 days survival",2*
same,Effect of intratumoral injection with larger volume combined with fanning,[3]; compared to the conventional mode of injecting the drug prior to pulsing,very effective
same,Change of tumor volume,"[3]; control group D+E- (drug, no electrical field)",increased dramatically
same,Tumor volume (mm^3) C1,"[3]; control mouse C1 (D+E-), 1 day after treatment",206.979 mm^3
same,Tumor volume (mm^3) C1,"[3]; control mouse C1 (D+E-), 8 days after treatment",394.786 mm^3
same,Tumor volume (mm^3) C1,"[3]; control mouse C1 (D+E-), 15 days after treatment",557.349 mm^3
same,Tumor volume (mm^3) C1,"[3]; control mouse C1 (D+E-), 18 days after treatment",939.582 mm^3
same,Tumor volume (mm^3) C1,"[3]; control mouse C1 (D+E-), 24 days after treatment",1391.057 mm^3
same,Tumor volume (mm^3) C1,"[3]; control mouse C1 (D+E-), 28 days after treatment",1628.631 mm^3
same,Tumor volume (mm^3) C1,"[3]; control mouse C1 (D+E-), 35 days after treatment",2619.765 mm^3
same,Tumor volume (mm^3) C1,"[3]; control mouse C1 (D+E-), 38 days after treatment",2908.912 mm^3
same,Tumor volume (mm^3) C1,"[3]; control mouse C1 (D+E-), 43 days after treatment",3708.571 mm^3
same,Tumor volume (mm^3) C1,"[3]; control mouse C1 (D+E-, bleomycin 0.5 units intratumoral, no pulsing), 0 days after treatment",138.746 mm^3
same,Tumor volume (mm^3) C2,"[3]; control mouse C2 (D+E-), 1 day after treatment",179.82 mm^3
same,Tumor volume (mm^3) C2,"[3]; control mouse C2 (D+E-), 8 days after treatment",451.787 mm^3
same,Tumor volume (mm^3) C2,"[3]; control mouse C2 (D+E-), 15 days after treatment",798.919 mm^3
same,Tumor volume (mm^3) C2,"[3]; control mouse C2 (D+E-), 18 days after treatment",881.752 mm^3
same,Tumor volume (mm^3) C2,"[3]; control mouse C2 (D+E-), 24 days after treatment",1406.98 mm^3
same,Tumor volume (mm^3) C2,"[3]; control mouse C2 (D+E-), 28 days after treatment",1474.21 mm^3
same,Tumor volume (mm^3) C2,"[3]; control mouse C2 (D+E-), 35 days after treatment",2330.31 mm^3
same,Tumor volume (mm^3) C2,"[3]; control mouse C2 (D+E-), 38 days after treatment",2333.967 mm^3
same,Tumor volume (mm^3) C2,"[3]; control mouse C2 (D+E-), 43 days after treatment",5381.759 mm^3
same,Tumor volume (mm^3) C2,"[3]; control mouse C2 (D+E-, bleomycin 0.5 units intratumoral, no pulsing), 0 days after treatment",148.94 mm^3
same,Overall outcome of the electrochemotherapy protocol,[3],effectively treated
same,Mice with no response,[3]; treated by ECT (D+E+),10%
same,Mice with nearly complete tumor regression,"[3]; treated by ECT (D+E+), after 28 days",90%
same,Change of tumor volume,"[3]; treated group D+E+, after a slight initial increase due to edema",substantial reduction in the tumor volume
same,Tumor volume (mm^3) T1,"[3]; treated mouse T1 (D+E+), 1 day after treatment",210.95 mm^3
same,Tumor volume (mm^3) T1,"[3]; treated mouse T1 (D+E+), 8 days after treatment",104.55 mm^3
same,Tumor volume (mm^3) T1,"[3]; treated mouse T1 (D+E+), 15 days after treatment",113.21 mm^3
same,Tumor volume (mm^3) T1,"[3]; treated mouse T1 (D+E+), 18 days after treatment",161.73 mm^3
same,Tumor volume (mm^3) T1,"[3]; treated mouse T1 (D+E+), 24 days after treatment",41.56 mm^3
same,Tumor volume (mm^3) T1,"[3]; treated mouse T1 (D+E+), 28 days after treatment",0 mm^3
same,Tumor volume (mm^3) T1,"[3]; treated mouse T1 (D+E+), 35 days after treatment",0 mm^3
same,Tumor volume (mm^3) T1,"[3]; treated mouse T1 (D+E+), 38 days after treatment",0 mm^3
same,Tumor volume (mm^3) T1,"[3]; treated mouse T1 (D+E+), 43 days after treatment",0 mm^3
same,Tumor volume (mm^3) T1,"[3]; treated mouse T1 (D+E+, bleomycin 0.5 units intratumoral + 1300 V/cm 6x99 μs pulses), 0 days after treatment",123.11 mm^3
same,Tumor volume (mm^3) T2,"[3]; treated mouse T2 (D+E+), 1 day after treatment",252.72 mm^3
same,Tumor volume (mm^3) T2,"[3]; treated mouse T2 (D+E+), 8 days after treatment",211.11 mm^3
same,Tumor volume (mm^3) T2,"[3]; treated mouse T2 (D+E+), 15 days after treatment",226.966 mm^3
same,Tumor volume (mm^3) T2,"[3]; treated mouse T2 (D+E+), 18 days after treatment",246.91 mm^3
same,Tumor volume (mm^3) T2,"[3]; treated mouse T2 (D+E+), 24 days after treatment",47.2228 mm^3
same,Tumor volume (mm^3) T2,"[3]; treated mouse T2 (D+E+), 28 days after treatment",0 mm^3
same,Tumor volume (mm^3) T2,"[3]; treated mouse T2 (D+E+), 35 days after treatment",0 mm^3
same,Tumor volume (mm^3) T2,"[3]; treated mouse T2 (D+E+), 38 days after treatment",0 mm^3
same,Tumor volume (mm^3) T2,"[3]; treated mouse T2 (D+E+), 43 days after treatment",0 mm^3
same,Tumor volume (mm^3) T2,"[3]; treated mouse T2 (D+E+, bleomycin 0.5 units intratumoral + 1300 V/cm 6x99 μs pulses), 0 days after treatment",178.37 mm^3
same,Tumor response,[4],reduction or complete remission of the tumors
neocarcinostatin [NCS],Overall outcome of the electrochemotherapy protocol,[1],effectively treated
same,Reduction of tumor size,[1]; pre-pulse dosing (FIG. 14b),not effective in reducing tumor size at all
same,Post-pulse compared with pre-pulse administration,[3]; FIGS. 14a and b versus 14c and d,more effective than pre-pulse administration
same,Overall outcome of the electrochemotherapy protocol,[3],effectively treated
same,Final versus initial tumor volume,"[3]; post-pulse dosing, day 13, 7 mice, mouse ID 1, 2, 4 and 7, appeared to be due to edema (FIG. 14c)",an increase in tumor volume was observed
same,Change of tumor volume,"[3]; post-pulse dosing, day 23, separate group of 5 mice (FIG. 14d)",all mice showed a marked reduction in tumor volume
same,Reduction of tumor size,[3]; pre-pulse dosing (FIG. 14a),not effective in reducing tumor size at all
